Measurements published in patent US20260216057A1, “PHARMACEUTICAL COMPOSITIONS FOR HERPES VIRUS” (priority 2022, published 2026).

Tests used:
[1] = Example 16: Compound 1 solution SC PK study in dog; type: in vivo, male non-naïve Beagle dogs; conditions: 10 mg/kg
Protocol: The LC-MS methodology and conditions used to analyse the helicase-primase inhibitor Compound 1 in dog plasma samples from the dog PK study described in Example 16 are given in Table 9.
(§1) A solution of Compound 1 in 90% NMP and 10% Solutol HS15 at a concentration of 50 mg/mL was prepared as follows: • 1) An appropriate amount of crystalline Compound 1 (Form C) was weighed and added to NMP. • 2) After Compound 1 had dissolved, Solutol HS15 was added to the solution and mixed. • 3) The final dosing formulation was a clear solution.
as §1, with “100” for “50”
Male non-naïve beagles were used for the dog PK study. The animals had free access to food and water. The prepared 50 mg/mL solution was administered via subcutaneous injection to each animal group (n=3) with a dosing volume of 0.2 mL/kg to achieve a 10 mg/kg dose. […]
At each time point, approximately 0.5 mL of whole blood was collected into K2EDTA tubes. […] Plasma samples were stored at approximately −70° C. until analyzed by LC-MS.

[2] = Example 13: Compound 1 IV PK study in rat; type: in vivo, male Sprague Dawley rats; conditions: male, Sprague Dawley, plasma, 1 mg/kg, read-out: Rat t1/2 (converted)
Protocol: The LC-MS methodology and conditions used to analyse Compound 1 in plasma samples from the intra-venous injection PK studies (Example 13) are described in Tables 5 to 7. A 0.2 mg/mL solution of Compound 1 in 10% NMP, 10% Solutol HS15 and 80% Saline was prepared as follows: • 1) A stock solution of Compound 1 in NMP was prepared. • 2) An equal volume of the Compound 1 stock solution and Solutol HS15 were combined and mixed. • 3) The above solution was diluted with normal saline to reach the target concentration. The final formulation was a clear solution. Male Sprague Dawley (SD) rats with 230-250 g body weight, ages 6-8 weeks, were used for the rat pharmacokinetic study. The animals had free access to food and water. The Compound 1 solution described above was administered via intravenous injection to animals (n=3) to achieve a 1.0 mg/kg dose. At each time point, approximately 200 μL whole blood was collected in a K2EDTA tubes. Blood samples were put on ice and centrifuged at 2000 g for 5 min to obtain a plasma sample within 15 minutes. Plasma samples were stored at approximately −70° C. until analyzed by LC-MS according to the method described above.

[3] = Example 3: pritelivir aqueous suspension SC PK study in monkey; type: in vivo, male cynomolgus monkeys; conditions: aqueous suspension (dihydrate), 10 mg/kg
Protocol: The LC-MS methodology and conditions used to analyse pritelivir in plasma samples from the PK studies described in Examples 1 to 5 are provided in Table 1.
An aqueous suspension of crystalline pritelivir free base (dihydrate) in a 0.9% NaCl+0.5% polysorbate 80 vehicle at a concentration of 3.0 mg/mL was prepared as follows: • 1) Vehicle (0.9% w/w NaCl and 0.5% w/w polysorbate 80) was prepared by dissolving NaCl and polysorbate 80 in water. • 2) Appropriate amount of crystalline pritelivir free base (dihydrate) was weighed and added to the vehicle. • 3) Mixture was stirred for 15 minutes, then vortexed for 1 minute and then sonicated for 10 minutes. • 4) The final dosing formulation was a homogenous white cloudy suspension.
Male non-naïve Cyno Monkeys with −5 kg body weight was used for the monkey PK study. The animals had free access to food and water. The prepared suspension was administered via subcutaneous injection to each animal group (n=3) with a dosing volume of 3.33 mL/kg to achieve a 10 mg/kg dose.
At each time point, approximately 0.5 mL whole blood was collected via the cephalic vein into K2EDTA tubes. Blood samples were put on to ice and centrifuged at 2000 g for 5 min to obtain plasma sample within 15 minutes. Plasma samples were stored at approximately −70° C. until analyzed by LC-MS.

## Cc1nc(N2CCCN(c3ccc(-c4cc(F)ccc4F)cc3)C2=O)sc1S(N)(=O)=O [Compound 1, 2-(3-(2′,5′-difluoro-[1,1′-biphenyl]-4-yl)-2-oxotetrahydropyrimidin-1(2H)-yl)-4-methylthiazole-5-sulfonamide]
[1]; both solution formulations
  adverse reactions at the injection sites: no adverse reactions were observed
[1]; solutions 50 mg/mL (0.2 mL/kg) and 100 mg/mL (0.1 mL/kg), both formulations
  prolonged exposure for (length of the study): at least 60 days
[2]
  half-life: 22 h

## Cc1nc(N(C)C(=O)Cc2ccc(-c3ccccn3)cc2)sc1S(N)(=O)=O [pritelivir, N-methyl-N-(4-methyl-5-sulfamoyl-1,3-thiazol-2-yl)-2-[4-(pyridin-2-yl)phenyl]acetamide]
[3]
  prolonged exposure out to (length of the study): at least 456 hours
